Key:
human NK1 receptor = biological target: T1, human NK1 receptor (Homo sapiens, UniProt P25103); assay: FLIPR assay, inhibition of human NK1 receptor activation (intracellular Ca2+); assay type: cell-based; settings: CHO cells with human NK1 receptor, agonist Substance P, read-out: pKB (NK1) (converted)
T1 construct: expressed in transfected cells; host or cells: CHO cells (AstraZeneca R&D Wilmington), cDNA in pRcCMV
Experimental: (§1) Chinese Hamster Ovary (CHO) K1 cells (obtained from ATCC) were stably transfected with the human NK2 receptor (hNK2R cDNA in pRc/CMV, Invitrogen) or the human NK3 receptor (hNK3R in pcDNA 3.1/Hygro (+)/IRES/CD8, Invitrogen vector modified at AstraZeneca EST-Bio UK, Alderley Park). The cells were transfected with the cationic lipid reagent LIPOFECTAMINE™ (Invitrogen) and selection was performed with Geneticin (G418, Invitrogen) at 1 mg/ml for the hNK2R transfected cells and with Hygromycin (Invitrogen) at 500 μg/ml for the hNK3R transfected cells. Single cell clones were collected by aid of Fluorescence Activated Cell Sorter (FACS), tested for functionality in a FLIPR assay (see below), expanded in culture and cryopreserved for future use. CHO cells stably transfected with human NK1 receptors originates from AstraZeneca R&D, Wilmington USA. Human NK1 receptor cDNA (obtained from RNA-PCR from lung tissue) was subcloned into pRcCMV (Invitrogen). Transfection was performed by Calcium Phosphate and selection with 1 mg/ml G418. […]
(§2) The activity of a compound of the invention to inhibit NK1/NK2/NK3 receptor activation measured as NK1/NK2/NK3 receptor mediated increase in intracellular Ca^2+ was assessed by the following procedure: […]

human NK2 receptor = biological target: T2, human NK2 receptor (Homo sapiens, UniProt P21452); assay: FLIPR assay, inhibition of human NK2 receptor activation (intracellular Ca2+); assay type: cell-based; settings: CHO cells with human NK2 receptor, agonist NKA, read-out: pKB (NK2) (converted)
T2 construct: expressed in transfected cells; host or cells: CHO-K1 cells (ATCC), hNK2R cDNA in pRc/CMV
T2 sequence (P21452 1-398): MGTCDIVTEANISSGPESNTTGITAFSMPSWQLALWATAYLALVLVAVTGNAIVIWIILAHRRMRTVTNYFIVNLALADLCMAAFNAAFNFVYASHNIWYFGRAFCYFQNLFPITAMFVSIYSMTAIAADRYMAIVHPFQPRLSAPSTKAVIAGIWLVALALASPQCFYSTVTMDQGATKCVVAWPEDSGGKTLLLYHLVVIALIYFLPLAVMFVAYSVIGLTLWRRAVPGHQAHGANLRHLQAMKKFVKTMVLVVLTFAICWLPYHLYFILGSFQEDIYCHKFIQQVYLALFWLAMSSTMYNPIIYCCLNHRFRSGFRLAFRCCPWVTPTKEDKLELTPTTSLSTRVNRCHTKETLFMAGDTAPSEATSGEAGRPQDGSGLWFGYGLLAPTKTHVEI
Experimental: as §1, §2

human NK3 receptor = biological target: T3, human NK3 receptor (Homo sapiens, UniProt P29371); assay: FLIPR assay, inhibition of human NK3 receptor activation (intracellular Ca2+); assay type: cell-based; settings: CHO cells with human NK3 receptor, agonist Pro-7-NKB, read-out: pKB (NK3) (converted)
T3 construct: expressed in transfected cells; host or cells: CHO-K1 cells (ATCC), hNK3R in pcDNA 3.1/Hygro (+)/IRES/CD8
T3 sequence (P29371 1-465): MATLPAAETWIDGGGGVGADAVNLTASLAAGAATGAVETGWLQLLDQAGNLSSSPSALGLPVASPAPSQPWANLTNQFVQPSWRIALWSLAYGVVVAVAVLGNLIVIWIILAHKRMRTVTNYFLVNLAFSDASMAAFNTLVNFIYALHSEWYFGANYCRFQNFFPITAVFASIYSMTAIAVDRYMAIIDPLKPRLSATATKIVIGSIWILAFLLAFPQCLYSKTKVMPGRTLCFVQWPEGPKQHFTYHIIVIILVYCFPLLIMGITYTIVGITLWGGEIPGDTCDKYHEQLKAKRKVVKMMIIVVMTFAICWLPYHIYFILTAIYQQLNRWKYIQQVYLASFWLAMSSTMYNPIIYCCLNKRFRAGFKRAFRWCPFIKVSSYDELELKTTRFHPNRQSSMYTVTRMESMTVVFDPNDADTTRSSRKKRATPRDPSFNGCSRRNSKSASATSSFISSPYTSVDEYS
Experimental: as §1, §2

[1] = biological target: hERG-encoded potassium channel (Homo sapiens, UniProt Q12809); assay: Activity against hERG (planar-array-based voltage clamp, Kiss et al.); assay type: cell-based
Sequence of hERG-encoded potassium channel (Q12809 whole entry): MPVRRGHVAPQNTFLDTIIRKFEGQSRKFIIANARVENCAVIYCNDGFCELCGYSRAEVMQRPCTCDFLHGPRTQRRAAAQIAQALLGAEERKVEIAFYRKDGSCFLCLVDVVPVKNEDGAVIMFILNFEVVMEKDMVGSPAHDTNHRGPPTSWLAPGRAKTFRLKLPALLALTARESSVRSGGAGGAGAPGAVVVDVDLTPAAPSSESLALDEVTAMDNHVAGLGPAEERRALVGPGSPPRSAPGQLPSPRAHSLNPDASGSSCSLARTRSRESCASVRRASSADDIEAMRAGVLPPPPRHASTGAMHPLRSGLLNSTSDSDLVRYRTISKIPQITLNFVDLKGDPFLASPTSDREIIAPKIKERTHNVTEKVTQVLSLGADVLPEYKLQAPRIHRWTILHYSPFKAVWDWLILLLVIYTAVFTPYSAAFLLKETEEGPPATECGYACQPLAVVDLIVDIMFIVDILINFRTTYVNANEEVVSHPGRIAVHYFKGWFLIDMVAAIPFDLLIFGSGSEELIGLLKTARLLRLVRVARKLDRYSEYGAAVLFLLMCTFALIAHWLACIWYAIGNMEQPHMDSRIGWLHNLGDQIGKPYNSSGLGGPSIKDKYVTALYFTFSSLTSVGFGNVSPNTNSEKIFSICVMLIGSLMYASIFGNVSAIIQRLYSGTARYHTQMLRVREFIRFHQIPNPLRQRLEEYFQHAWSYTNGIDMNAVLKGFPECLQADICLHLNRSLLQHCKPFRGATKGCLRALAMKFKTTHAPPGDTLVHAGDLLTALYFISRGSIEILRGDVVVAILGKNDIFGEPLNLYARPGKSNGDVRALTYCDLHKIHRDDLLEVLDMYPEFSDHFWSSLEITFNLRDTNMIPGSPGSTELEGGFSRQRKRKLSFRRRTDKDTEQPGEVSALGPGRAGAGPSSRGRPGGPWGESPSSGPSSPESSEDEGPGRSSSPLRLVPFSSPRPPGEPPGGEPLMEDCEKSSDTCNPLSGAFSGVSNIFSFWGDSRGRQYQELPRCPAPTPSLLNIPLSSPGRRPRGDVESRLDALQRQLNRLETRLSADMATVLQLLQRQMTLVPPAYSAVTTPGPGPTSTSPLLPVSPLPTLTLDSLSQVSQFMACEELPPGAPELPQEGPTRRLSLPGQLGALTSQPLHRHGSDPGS
Description: The activity of compounds according to formula I against the hERG-encoded potassium channel can be determined according to Kiss L, et al. Assay Drug Dev Technol. 1 (2003), 127-35: “High throughput ion-channel pharmacology: planar-array-based voltage clamp”.

CYP3A4 = CYP3A4 (Homo sapiens, UniProt P08684); assay: CYP3A4 inhibition assay (Bapiro et al.); assay type: in vitro ADME
Sequence of CYP3A4 (P08684 whole entry): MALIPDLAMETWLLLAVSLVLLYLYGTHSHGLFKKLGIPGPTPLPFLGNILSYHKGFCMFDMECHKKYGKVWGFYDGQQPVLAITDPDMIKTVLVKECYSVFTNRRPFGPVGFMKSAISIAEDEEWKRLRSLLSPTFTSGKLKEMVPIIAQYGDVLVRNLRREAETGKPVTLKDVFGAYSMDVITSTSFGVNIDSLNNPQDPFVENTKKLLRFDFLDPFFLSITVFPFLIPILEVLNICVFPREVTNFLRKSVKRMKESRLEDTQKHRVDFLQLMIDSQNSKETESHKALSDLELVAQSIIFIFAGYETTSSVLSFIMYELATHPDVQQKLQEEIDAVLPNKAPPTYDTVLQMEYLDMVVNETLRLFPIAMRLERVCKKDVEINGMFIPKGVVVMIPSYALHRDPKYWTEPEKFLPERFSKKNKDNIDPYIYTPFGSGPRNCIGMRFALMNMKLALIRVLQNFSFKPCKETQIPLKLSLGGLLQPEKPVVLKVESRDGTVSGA
Description: It is well known that severe problems such as toxicity may occur if plasma levels of one medication are altered by the co-administration of another drug. […] CYP (cytochrome P450) 3A4 is the most important enzyme in the human liver as a majority of oxidised drugs have been biotransformed by this enzyme. Accordingly, it is undesirable to employ a medication having a significant degree of such liver enzyme inhibiting properties. […] Thus, there is a need for a novel NK receptor antagonist with improved pharmacokinetic properties. The present invention provides compounds with CYP3A4 enzyme inhibiting properties at a low level, as comparatively high IC50 values are obtained in a CYP3A4 inhibiting assay. Said method for determining CYP3A4 inhibition is described in Bapiro et al; Drug Metab. Dispos. 29, 30-35 (2001).
The IC50 values tested according to Bapiro et al; Drug Metab. Dispos. 29, 30-35 (2001) were generally greater than 2 μM.

[2] = Metabolic stability in liver microsomes (HLM); assay type: in vitro ADME; settings: pH 7.4; human liver microsomes
Experimental: Stability against human microsomal metabolism in vitro is indicative of stability towards metabolism in vivo.
The metabolic stability of compounds according to formula I can be determined as described below: […]
The rate of biotransformation can be measured as either metabolite(s) formation or the rate of disappearance of the parent compound. The experimental design involves incubation of low concentrations of substrate (usually 1.0 μM) with liver microsomes (usually 0.5 mg/ml) and taking out aliquots at varying time points (usually 0, 5, 10, 15, 20, 30, 40 min.). The test compound is usually dissolved in DMSO. The DMSO concentration in the incubation mixture is usually 0.1% or less since more solvent can drastically reduce the activities of some CYP450s. Incubations are done in 100 mM potassium phosphate buffer, pH 7.4 and at 37° C. Acetonitrile or methanol is used to stop the reaction.

[3] = biological target: T4, Human Neurokinin-2 (NK2) Receptor (Homo sapiens, UniProt P21452); settings: Bioorg. Med. Chem. Lett. (2003), 13, 2211-2215; cited from earlier work
T4 sequence (P21452 1-398): T2 sequence (P21452 1-398)

T1 sequence (P25103 whole entry): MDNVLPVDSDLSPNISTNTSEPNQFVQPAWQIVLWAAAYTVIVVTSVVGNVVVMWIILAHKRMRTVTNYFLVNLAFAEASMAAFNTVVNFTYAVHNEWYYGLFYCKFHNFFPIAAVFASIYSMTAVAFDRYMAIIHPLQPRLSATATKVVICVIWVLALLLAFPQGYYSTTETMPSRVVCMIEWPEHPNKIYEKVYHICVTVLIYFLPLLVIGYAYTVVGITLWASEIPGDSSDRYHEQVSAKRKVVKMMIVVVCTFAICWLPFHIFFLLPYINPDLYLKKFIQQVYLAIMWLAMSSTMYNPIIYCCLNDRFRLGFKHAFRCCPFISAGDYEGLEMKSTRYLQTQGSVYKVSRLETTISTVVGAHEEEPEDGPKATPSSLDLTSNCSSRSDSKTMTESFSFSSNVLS

Structure (SMILES)	Kb (human NK1 receptor)	Kb (human NK2 receptor)	Kb (human NK3 receptor)	IC50 [1]	IC50 (CYP3A4)	microsomal CLint at 1 μM [2]	functional NK2 receptor antagonism [3]
CN(C[C@@H](CCN1CC(N2CCOC[C@H]2CCO)C1)c1ccc(F)cc1)C(=O)c1cc(Br)cc(C(F)(F)F)c1 [Ex 5, 3-Bromo-N-((2S)-2-(4-fluorophenyl)-4-{3-[(3R)-3-(2-hydroxyethyl)morpholin-4-yl]azetidin-1-yl}butyl)-N-methyl-5-(trifluoromethyl)benzamide]	7.94 nM	25.1 nM	20 nM	18800 nM	19200 nM	40.7 µL/min/mg	
CN(CC(CCN1CC(N2CCOCC2)C1)c1ccc(Cl)c(Cl)c1)C(=O)c1ccccc1 (stereo not shown) [N-[2-(3,4-dichlorophenyl)-4-(3-morpholin-4-ylazetidin-1-yl)butyl]-N-methylbenzamide]							functional NK2 receptor antagonistic properties

Reference: patent US20100069346A1, “New Azetidine Derivatives as Neurokinin Receptor Antagonists for the Treatment of Gastrointestinal Diseases” (priority 2005, published 2010)
